{"source": "patent US20230310628A1", "about": "“Multi-Targeted Multi-Valent Ligand Drug Particles for the Treatment and Prevention of Diseases and Conditions” (priority 2017, published 2023)", "system": "cell lines expressing HER2 and EGFR", "test": "Cytotoxicity studies in vitro, free versus liposomal doxorubicin", "format": "cell-based, human", "conditions": "compared with liposomal doxorubicin", "description": "Cytotoxicity studies were conducted with doxorubicin as it is the staple drug for liposomal delivery.\nFor cytotoxicity studies, cells cultured overnight in 96-well plates (10*10^3 cells/well) were incubated with doxorubicin-load liposomes (100 μg/ml with 1/3 dilutions) at 37° C. for 4 hr, washed with PBS, and grown in medium for 3 additional days. Cell viability was analyzed by MTT assay."}
{"smiles": "COc1cccc2c1C(=O)c1c(O)c3c(c(O)c1C2=O)C[C@@](O)(C(=O)CO)C[C@@H]3O[C@H]1C[C@H](N)[C@H](O)[C@H](C)O1", "note": "[free doxorubicin, doxorubicin]", "values": [{"measurement": "effectiveness in cytotoxicity studies in vitro", "value": "most effective"}]}
